# Experimental data reported in ChEMBL document CHEMBL1772987, “Development of amidine-based sphingosine kinase 1 nanomolar inhibitors and reduction of sphingosine 1-phosphate in human leukemia cells” (J Med Chem, 2011).
# How the values were obtained:
# [1] = target: T1, Sphingosine kinase 2 (Mus musculus, UniProt Q9JIA7); test: Inhibition of mouse recombinant SPHK2 expressed in baculovirus-infected Sf9 cells
# T1 sequence (Q9JIA7 whole entry): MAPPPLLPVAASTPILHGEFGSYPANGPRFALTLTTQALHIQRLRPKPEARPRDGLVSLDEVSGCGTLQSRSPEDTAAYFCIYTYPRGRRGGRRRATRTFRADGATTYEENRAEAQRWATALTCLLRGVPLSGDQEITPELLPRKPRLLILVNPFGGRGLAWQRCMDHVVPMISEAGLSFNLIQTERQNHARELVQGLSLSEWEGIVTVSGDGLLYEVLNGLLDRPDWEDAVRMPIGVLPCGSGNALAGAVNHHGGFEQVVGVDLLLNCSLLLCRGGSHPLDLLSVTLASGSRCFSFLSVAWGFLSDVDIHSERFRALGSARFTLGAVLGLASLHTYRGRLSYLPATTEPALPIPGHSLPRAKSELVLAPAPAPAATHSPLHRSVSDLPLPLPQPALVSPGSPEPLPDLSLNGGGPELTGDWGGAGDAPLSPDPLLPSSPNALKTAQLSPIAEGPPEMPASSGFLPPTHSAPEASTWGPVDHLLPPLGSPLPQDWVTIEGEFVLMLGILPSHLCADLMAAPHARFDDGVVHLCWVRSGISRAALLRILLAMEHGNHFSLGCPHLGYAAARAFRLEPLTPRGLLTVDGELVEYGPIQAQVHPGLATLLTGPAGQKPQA
# [2] = target: T2, Sphingosine kinase 1 (Homo sapiens, UniProt Q9NYA1); test: biochemical
# T2 sequence (Q9NYA1 whole entry): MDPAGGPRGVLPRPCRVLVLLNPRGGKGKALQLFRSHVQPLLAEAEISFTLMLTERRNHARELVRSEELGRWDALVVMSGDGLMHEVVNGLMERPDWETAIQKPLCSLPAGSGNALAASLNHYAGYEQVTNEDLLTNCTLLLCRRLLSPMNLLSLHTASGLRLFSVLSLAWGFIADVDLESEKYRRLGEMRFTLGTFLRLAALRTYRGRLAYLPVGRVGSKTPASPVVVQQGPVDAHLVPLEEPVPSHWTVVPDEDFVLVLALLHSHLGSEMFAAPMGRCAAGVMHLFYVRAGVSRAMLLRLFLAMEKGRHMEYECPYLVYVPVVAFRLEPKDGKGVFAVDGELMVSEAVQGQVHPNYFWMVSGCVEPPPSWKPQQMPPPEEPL
# Description: (§1) Inhibition of human recombinant SPHK1 expressed in baculovirus-infected Sf9 cells
# [3] = target: T2, Sphingosine kinase 1
# Description: as §1
# [4] = target: Sphingosine kinase 2 (Mus musculus) (UniProt Q9JIA7); test: Inhibition of SPHK2
Structure (SMILES),Ki [1],Ki [2],Ki [3],Ki [4]
Oc1ccc(Nc2nc(-c3ccc(Cl)cc3)cs2)cc1,33 µM,,,
CCCCCCCCCCCCCCNC(=O)C1(C(=N)N)CC1,7.5 µM,6 µM,,
CCCCCCCCCCCCCCCCNC(=O)C1(C(=N)N)CC1,> 100 µM,5.4 µM,,
CCCCCCCCCCCCCCCCCCNC(=O)C1(C(=N)N)CC1,> 100 µM,9 µM,,
N=C(N)C1(C(=O)Nc2ccc(CCCCCCCOCc3ccccc3)cc2)CC1,38 µM,5 µM,,
N=C(N)C1(C(=O)Nc2ccc(CCCCCCCCCc3ccccc3)cc2)CC1,> 10 µM,0.5 µM,,
N=C(N)C1(C(=O)Nc2ccc(CCCCCCCCc3ccccc3)cc2)CC1,> 10 µM,1.3 µM,,
N=C(N)C1(C(=O)Nc2ccc(CCCCCCOCC3CCCCC3)cc2)CC1,12 µM,0.39 µM,,
N=C(N)C1(C(=O)Nc2ccc(CCCCCCCOCC3CCCCC3)cc2)CC1,7 µM,0.24 µM,,
N=C(N)C1(C(=O)Nc2ccc(CCCCCCCCOCC3CCCCC3)cc2)CC1,> 20 µM,0.8 µM,,
N=C(N)C1(C(=O)Nc2ccc(CCCCCCCOCC34CC5CC(CC(C5)C3)C4)cc2)CC1,4.6 µM,1.5 µM,,
N=C(N)C1(C(=O)NCCCCCCCCCCOCC2CCCCC2)CC1,26 µM,,0.11 µM,
N=C(N)C1(C(=O)NCCCCCCCCCCOCC2CCCC2)CC1,25 µM,0.45 µM,,
N=C(N)C1(NC(=O)c2ccc(CCCCCCCOCC3CCCCC3)cc2)CC1,15 µM,0.13 µM,,
N=C(N)C1(NC(=O)c2ccc(CCCCCCCOCC3CCCC3)cc2)CC1,18 µM,0.17 µM,,
CCCCOCCCCCCCc1ccc(C(=O)NC2(C(=N)N)CC2)cc1,40 µM,1.3 µM,,
CCCCCCCCCCCOc1ccc(C(=O)NC2(C(=N)N)CC2)cc1,10 µM,4 µM,,
N=C(N)C1(NC(=O)CCCCCCCCCCOCC2CCCCC2)CC1,12 µM,0.095 µM,,
CCCCCCCCCCCCc1ccc(C(=O)NC2(C(=N)N)CCC2)cc1,5 µM,1.6 µM,,
N=C(N)[C@@H]1CCCN1C(=O)c1ccc(CCCCCCCOCC2CCCCC2)cc1,3 µM,,0.075 µM,
N=C(N)[C@@H]1CCCN1C(=O)c1ccc(CCCCCCCCCC2CCCCC2)cc1,5.3 µM,0.099 µM,,
N=C(N)[C@@H]1CCCN1C(=O)CCCCCCCCCCOCC1CCCCC1,8 µM,0.13 µM,,
N=C(N)[C@@H]1CCCN1C(=O)c1ccc(-c2nc(-c3cccc(CCC4CCCCC4)c3)c[nH]2)cc1,20 µM,2 µM,,
N=C(N)[C@@H]1CCCN1C(=O)c1ccc(-c2nc(-c3cccc(CCC4CCCCC4)c3)co2)cc1,4.2 µM,,0.047 µM,
N=C(N)[C@@H]1CCCN1C(=O)c1ccc(-c2nc(-c3cccc(CCC4CCCCC4)c3)cs2)cc1,6 µM,0.11 µM,,
CCCCCCCCc1ccc(NC(=O)[C@@H](N)CCO)cc1,31 µM,,,31 µM
